Source: paper PMC9959518, “Influence of the Drug Position on Bioactivity in Angiopep-2—Daunomycin Conjugates” (International Journal of Molecular Sciences, 2023)

What was measured:
[1] = system: U87 human glioblastoma cells; assay type: cell-based; conditions: MTT test; for IC50: 0.05–50 µM, treated 24 h (method: overnight), washed, further 48 h (method: 72 h) at 37 °C, two independent experiments with four parallel measurements
Protocol: The in vitro cytostatic effect of the synthesized peptide (1) and daunomycin-peptide conjugates (2–8) was investigated on U87 human glioblastoma cells. The cells were treated with the peptide and conjugates at different concentrations (0.05–50 μM) for 24 h, and after a washing step, the cells were incubated for another […] at 37 °C. The cytostatic effect of the compounds was determined using the MTT test.
U87 human glioblastoma cell line was cultured in DMEM supplemented with 10% FBS, 2 mM L-glutamine, penicillin–streptomycin antibiotic mixture (50 IU/mL and 50 μg/mL, respectively), 1 mM sodium pyruvate, and 1% non-essential amino acid mixture. The cell culture was maintained at 37 °C in a humidified atmosphere with 5% CO2. The U87 cell line was a generous gift of Dr. József Tóvári (Department of Experimental Pharmacology, National Institute of Oncology, Budapest, Hungary).
For determining the cytostatic effect of the conjugates, U87 cells were grown to confluency and then divided into 96-well tissue culture plates with an initial cell number of 5.0 × 10^3 cells/well. After 24 h incubation at 37 °C, the cells were treated with the compounds overnight in the concentration range of 0.05–50 μM in 200 μL final volume containing 1.0 v/v% DMSO, whereas control cells were treated only with serum-free medium or with 1.0 v/v% DMSO at the same conditions. After the incubation, cells were washed twice with serum-free medium, then the cells were cultured for an additional 72 h in 10% serum-containing medium at 37 °C. Following that, MTT solution (at c = 0.37 mg/mL final concentration) was added to each well. The respiratory chain [32] and other electron transport systems reduced MTT and thereby formed non-water-soluble violet formazan crystals within the cells. The amount of these crystals can be determined by spectrophotometry and serves as an estimate for the number of mitochondria in addition to the number of living cells in the well [35]. After 3 h of incubation with MTT, the cells were centrifuged for 5 min at 2000 rpm and the supernatant was removed. The obtained formazan crystals were dissolved in DMSO (100 µL), and the optical density (OD) of the samples was measured at λ = 540 nm and 620 nm, respectively, using ELISA Reader (iEMS Reader, Labsystems, Finland). The OD620 values were subtracted from the OD540 values. The percent of cytostasis was calculated with the following equation:(1) Cytostatic effect (%)=1−ODtreated/ODcontrol×100 where the ODtreated and ODcontrol values correspond to the optical densities of the treated and the control wells, respectively. In each case, two independent experiments were carried out with four parallel measurements. Cytostasis was plotted as a function of concentration, and the half-maximal inhibitory concentration was calculated based on a sigmoid curve fitted on the data points using Microcal™ Origin 2018 software. IC50 represents the concentration of a compound that is required for 50% inhibition, expressed in micromolar units.

[2] = Degradation in rat liver lysosomal homogenate followed by HPLC-MS; assay type: in vitro ADME
Protocol: The conjugates were treated with lysosomal homogenate for 5 min, 1 h, 6 h, 24 h, and 72 h, and the degradation was followed by HPLC-MS. Control studies investigating conjugates in buffer (without lysosomal homogenate) were also performed, and for these, all conjugates were stable. […] At 6 h, it was the main drug-containing metabolite, and at 72 h, only this Dau-containing fragment could be detected. This time-dependent pattern was also observed in the case of conjugate 2, where Dau was attached to the side chain of Lys in position 15, and the formed smallest metabolite was H-Lys(Dau=Aoa)-OH. […] It is likely that, in this case, a large steric hindrance occurred, and the enzymes were not able to access the peptide bonds around ^10Lys. This observation might explain the discrepancy between the efficient cellular uptake and the lower anticancer activity of this conjugate.
A stock solution with a concentration of 2.5 μg/μL was prepared from the conjugates in distilled water, and this was diluted 100× with 0.2 M sodium acetate buffer (pH 5.03). The rat liver lysosomal homogenate (16.6 μg/μL) was diluted 20× with the same buffer, and then the two solutions were mixed in a 1:1 (protein:peptide, m/m) ratio. In each case, control measurements were also performed, in which buffer was added to the conjugates instead of the lysosomal homogenate. The solutions were stirred at 600 rpm at 37 °C in a thermostat (ThermoMixer, Eppendorf AG, Hamburg, Germany), and after 5 min, 1 h, 6 h, 24 h, and 72 h, 50 μL samples were taken. Each reaction was quenched with 5 μL formic acid and the samples were stored frozen until analysis.
The HPLC-MS analysis of the samples was performed with a Dionex 3000 HPLC-Q Exactive Focus hybrid quadrupole-orbitrap mass spectrometer (Thermo Fisher Scientific, Bremen, Germany). For separation, a Supelco Ascentis C18 column (3 μm, 100 Å, 150 × 2.1 mm; Merck, Darmstadt, Germany) and gradient elution (0 min 2% B, 1 min 2% B, 17 min 90% B; A eluent: 0.1% formic acid/distilled water, eluent B: 0.1% formic acid/acetonitrile + distilled water (80:20, v/v%), flow rate 0.2 mL/min, 40 °C) was used, and high-resolution mass spectra were recorded in the range of 200–1800 m/z. The data were analyzed using the Xcalibur program (Thermo Fisher Scientific).

SMILES	IC50 [1] [µM]	further results
COc1cccc2c1C(=O)c1c(O)c3c(c(O)c1C2=O)C[C@@](O)(C(C)=NOCC(=O)NCCCC[C@H](NC(=O)CNC(=O)[C@H](CCCNC(=N)N)NC(=O)[C@H](CO)NC(=O)CNC(=O)CNC(=O)[C@H](Cc1ccc(O)cc1)NC(=O)[C@H](Cc1ccccc1)NC(=O)[C@H](Cc1ccccc1)NC(=O)[C@@H](NC(=O)CON=C(C)[C@]1(O)Cc2c(O)c4c(c(O)c2[C@@H](O[C@H]2C[C@H](N)[C@H](O)[C@H](C)O2)C1)C(=O)c1c(OC)cccc1C4=O)[C@@H](C)O)C(=O)N[C@@H](CCCNC(=N)N)C(=O)N[C@@H](CC(N)=O)C(=O)N[C@@H](CC(N)=O)C(=O)N[C@@H](Cc1ccccc1)C(=O)N[C@@H](CCCCNC(=O)CON=C(C)[C@]1(O)Cc2c(O)c4c(c(O)c2[C@@H](O[C@H]2C[C@H](N)[C@H](O)[C@H](C)O2)C1)C(=O)c1c(OC)cccc1C4=O)C(=O)N[C@H](C(=O)N[C@@H](CCC(=O)O)C(=O)N[C@@H](CCC(=O)O)C(=O)N[C@@H](Cc1ccc(O)cc1)C(=O)O)[C@@H](C)O)C[C@@H]3O[C@H]1C[C@H](N)[C@H](O)[C@H](C)O1 [compound 8, Dau=Aoa-TFFYGGSRGK(Dau=Aoa)RNNFK(Dau=Aoa)TEEY-OH]	23.6 ± 6.3	
C[C@@H](O)[C@H](N)C(=O)N[C@@H](Cc1ccccc1)C(=O)N[C@@H](Cc1ccccc1)C(=O)N[C@@H](Cc1ccc(O)cc1)C(=O)NCC(=O)NCC(=O)N[C@@H](CO)C(=O)N[C@@H](CCCNC(=N)N)C(=O)NCC(=O)N[C@@H](CCCCN)C(=O)N[C@@H](CCCNC(=N)N)C(=O)N[C@@H](CC(N)=O)C(=O)N[C@@H](CC(N)=O)C(=O)N[C@@H](Cc1ccccc1)C(=O)N[C@@H](CCCCN)C(=O)N[C@H](C(=O)N[C@@H](CCC(=O)O)C(=O)N[C@@H](CCC(=O)O)C(=O)N[C@@H](Cc1ccc(O)cc1)C(=O)O)[C@@H](C)O [compound 1, H-TFFYGGSRGKRNNFKTEEY-OH, reference compound]	> 50	in vitro cytostatic effect (in words) ([1]; up to 50 µM): did not show any effect
COc1cccc2c1C(=O)c1c(O)c3c(c(O)c1C2=O)C[C@@](O)(C(C)=NOCC(=O)NCCCC[C@H](NC(=O)[C@H](Cc1ccccc1)NC(=O)[C@H](CC(N)=O)NC(=O)[C@H](CC(N)=O)NC(=O)[C@H](CCCNC(=N)N)NC(=O)[C@H](CCCCN)NC(=O)CNC(=O)[C@H](CCCNC(=N)N)NC(=O)[C@H](CO)NC(=O)CNC(=O)CNC(=O)[C@H](Cc1ccc(O)cc1)NC(=O)[C@H](Cc1ccccc1)NC(=O)[C@H](Cc1ccccc1)NC(=O)[C@@H](NC(=O)CON=C(C)[C@]1(O)Cc2c(O)c4c(c(O)c2[C@@H](O[C@H]2C[C@H](N)[C@H](O)[C@H](C)O2)C1)C(=O)c1c(OC)cccc1C4=O)[C@@H](C)O)C(=O)N[C@H](C(=O)N[C@@H](CCC(=O)O)C(=O)N[C@@H](CCC(=O)O)C(=O)N[C@@H](Cc1ccc(O)cc1)C(=O)O)[C@@H](C)O)C[C@@H]3O[C@H]1C[C@H](N)[C@H](O)[C@H](C)O1 [compound 5, Dau=Aoa-TFFYGGSRGKRNNFK(Dau=Aoa)TEEY-OH]	32.3 ± 8.1	
COc1cccc2c1C(=O)c1c(O)c3c(c(O)c1C2=O)C[C@@](O)(C(C)=NOCC(=O)N[C@H](C(=O)N[C@@H](Cc1ccccc1)C(=O)N[C@@H](Cc1ccccc1)C(=O)N[C@@H](Cc1ccc(O)cc1)C(=O)NCC(=O)NCC(=O)N[C@@H](CO)C(=O)N[C@@H](CCCNC(=N)N)C(=O)NCC(=O)N[C@@H](CCCCN)C(=O)N[C@@H](CCCNC(=N)N)C(=O)N[C@@H](CC(N)=O)C(=O)N[C@@H](CC(N)=O)C(=O)N[C@@H](Cc1ccccc1)C(=O)N[C@@H](CCCCN)C(=O)N[C@H](C(=O)N[C@@H](CCC(=O)O)C(=O)N[C@@H](CCC(=O)O)C(=O)N[C@@H](Cc1ccc(O)cc1)C(=O)O)[C@@H](C)O)[C@@H](C)O)C[C@@H]3O[C@H]1C[C@H](N)[C@H](O)[C@H](C)O1 [compound 3, Dau=Aoa-TFFYGGSRGKRNNFKTEEY-OH]	10.9 ± 2.8	time of appearance of the Dau=Aoa-Thr-OH fragment ([2]; 1:1 protein:peptide m/m, 0.2 M sodium acetate pH 5.03, 37 °C): ≤ 1 h
COc1cccc2c1C(=O)c1c(O)c3c(c(O)c1C2=O)C[C@@](O)(C(C)=NOCC(=O)NCCCC[C@H](NC(=O)CNC(=O)[C@H](CCCNC(=N)N)NC(=O)[C@H](CO)NC(=O)CNC(=O)CNC(=O)[C@H](Cc1ccc(O)cc1)NC(=O)[C@H](Cc1ccccc1)NC(=O)[C@H](Cc1ccccc1)NC(=O)[C@@H](N)[C@@H](C)O)C(=O)N[C@@H](CCCNC(=N)N)C(=O)N[C@@H](CC(N)=O)C(=O)N[C@@H](CC(N)=O)C(=O)N[C@@H](Cc1ccccc1)C(=O)N[C@@H](CCCCNC(=O)CON=C(C)[C@]1(O)Cc2c(O)c4c(c(O)c2[C@@H](O[C@H]2C[C@H](N)[C@H](O)[C@H](C)O2)C1)C(=O)c1c(OC)cccc1C4=O)C(=O)N[C@H](C(=O)N[C@@H](CCC(=O)O)C(=O)N[C@@H](CCC(=O)O)C(=O)N[C@@H](Cc1ccc(O)cc1)C(=O)O)[C@@H](C)O)C[C@@H]3O[C@H]1C[C@H](N)[C@H](O)[C@H](C)O1 [compound 6, H-TFFYGGSRGK(Dau=Aoa)RNNFK(Dau=Aoa)TEEY-OH]	21.6 ± 5.4	
COc1cccc2c1C(=O)c1c(O)c3c(c(O)c1C2=O)C[C@@](O)(C(C)=NOCC(=O)NCCCC[C@H](NC(=O)[C@H](Cc1ccccc1)NC(=O)[C@H](CC(N)=O)NC(=O)[C@H](CC(N)=O)NC(=O)[C@H](CCCNC(=N)N)NC(=O)[C@H](CCCCN)NC(=O)CNC(=O)[C@H](CCCNC(=N)N)NC(=O)[C@H](CO)NC(=O)CNC(=O)CNC(=O)[C@H](Cc1ccc(O)cc1)NC(=O)[C@H](Cc1ccccc1)NC(=O)[C@H](Cc1ccccc1)NC(=O)[C@@H](N)[C@@H](C)O)C(=O)N[C@H](C(=O)N[C@@H](CCC(=O)O)C(=O)N[C@@H](CCC(=O)O)C(=O)N[C@@H](Cc1ccc(O)cc1)C(=O)O)[C@@H](C)O)C[C@@H]3O[C@H]1C[C@H](N)[C@H](O)[C@H](C)O1 [compound 2, H-TFFYGGSRGKRNNFK(Dau=Aoa)TEEY-OH]	30.2 ± 6.4	
COc1cccc2c1C(=O)c1c(O)c3c(c(O)c1C2=O)C[C@@](O)(C(C)=NOCC(=O)N[C@H](C(=O)N[C@@H](C)C(=O)NCC(=O)NCC(=O)NCCCC[C@H](NC(=O)CNC(=O)[C@H](CCCNC(=N)N)NC(=O)[C@H](CO)NC(=O)CNC(=O)CNC(=O)[C@H](Cc1ccc(O)cc1)NC(=O)[C@H](Cc1ccccc1)NC(=O)[C@H](Cc1ccccc1)NC(=O)[C@@H](N)[C@@H](C)O)C(=O)N[C@@H](CCCNC(=N)N)C(=O)N[C@@H](CC(N)=O)C(=O)N[C@@H](CC(N)=O)C(=O)N[C@@H](Cc1ccccc1)C(=O)N[C@@H](CCCCN)C(=O)N[C@H](C(=O)N[C@@H](CCC(=O)O)C(=O)N[C@@H](CCC(=O)O)C(=O)N[C@@H](Cc1ccc(O)cc1)C(=O)O)[C@@H](C)O)C(C)C)C[C@@H]3O[C@H]1C[C@H](N)[C@H](O)[C@H](C)O1 [compound 11, H-TFFYGGSRGK(Dau=Aoa-VAGG)RNNFKTEEY-OH]	20.2 ± 3	time of appearance of the Dau=Aoa-Val-Ala-OH fragment ([2]; pH 5.03, 37 °C): 1 h; amount of Dau=Aoa-Val-OH detected after 6 h ([2]; pH 5.03, 37 °C, 6 h): high amounts
